pIC50, pKd: −log10 of the molar value. Where two headings read alike, the source gives them in different places. Each block holds one compound with its values, some of them ahead of it.
Key:
[1] = system: alternative complement pathway (AP); experiment: Ex vivo assessment of plasma PD inhibition (AP MAC deposition ELISA in rat serum); set-up: species or system Sprague Dawley rats; conditions: 2 mg/kg oral
[2] = biological target: T1, Recombinant human Factor B catalytic domain (Homo sapiens (Human), UniProt P00751); experiment: biochemical
[3] = biological target: T1, Recombinant human Factor B catalytic domain; experiment: Factor B binding assay by TR-FRET; conditions: 10 nM his-tagged Factor B catalytic domain, 100 nM tracer, 1 h; for IC50: Factor B TR-FRET IC50 (nM); for pIC50: read-out: Factor B TR-FRET IC50
[4] = biological target: T1, Recombinant human Factor B catalytic domain; experiment: Target residence time of Factor B inhibitors by surface plasmon resonance (SPR); conditions: for Residence time: 1/koff; for t1/2: binding half-life ln2/koff
AP complement activation = experiment: In vivo assessment of mouse AP complement functional activity (LPS-induced plasma C3b/iC3b/C3c ELISA); set-up: species or system C57BL/6 mice; conditions: at 20 h, 20 mg/kg oral
Description: Female C57BL/6 mice were administered with Example 57 formulation (20 mg/kg in 0.5% (w/v) methyl cellulose, 0.5% (v/v) Tween 80) by oral gavage 20 h before the end of study. To activate complement pathway, lipopolysaccharide (LPS) from Salmonella typhimurium (Sigma) was injected i.p. (2.5 mg/kg) 7.5 h prior to the end of the study. Control mice were given i.p. injection of saline solution and dosed with vehicle by oral gavage. Plasma samples were collected from mice at the end of the study. AP complement activation was assessed by measuring plasma C3 cleavage products C3b/iC3b/C3c with ELISA using rat anti-mouse C3b/iC3b/C3c monoclonal antibody (clone 2/11, Hycult biotech, 0.1ug/well) and goat anti-Rat IgG (whole molecule)-Peroxidase (Sigma) diluted in TBST (TBS/0.05% Tween20).

[5] = Ocular pharmacokinetic studies in rats; type: in vivo, brown Norway rats; conditions: 2 mpk PO
Description: Three-month-old brown Norway rats were administered the Example compound via oral gavage as a suspension in 2 equiv 1 N HCl+30% PEG300+50% (20% Cremophor EL in water). Ocular tissues from both eyes and plasma were collected from rats per time point at 0.25, 0.5, 1, 6, and 24 h after administration. The ocular tissues collected were the retina and the posterior eye cup (RPE/choroid and posterior sclera). The tissues were diluted with phosphate buffered saline containing 10% acetonitrile and homogenized, centrifuged prior to analyses. The concentrations of the test article were measured in plasma and supernatants of ocular homogenates by HPLC-MS/MS in four individual retinas, four individual posterior eye cups, and two individual plasma samples at each time point. Chromatographic separation was carried out on Waters BEH C18 Column (2.1×50 mm, 1.7 μm) column (MAC-MOD Analytical, Chadds Ford, PA), using a gradient elution method with water and acetonitrile, both containing 0.025% formic acid—1 mM NH4OAc. Mass spectrometric measurements in positive electrospray ionization were directed at quantifying the mass transition with [M+H]^+ as the precursor ion on API6500, triple quadruple mass spectrometer (Sciex, Framingham, MA). The relevant pharmacokinetic parameters were estimated using noncompartmental methods using WinNonlin (Enterprise, version 8.2).

T1 sequence (P00751 470-764): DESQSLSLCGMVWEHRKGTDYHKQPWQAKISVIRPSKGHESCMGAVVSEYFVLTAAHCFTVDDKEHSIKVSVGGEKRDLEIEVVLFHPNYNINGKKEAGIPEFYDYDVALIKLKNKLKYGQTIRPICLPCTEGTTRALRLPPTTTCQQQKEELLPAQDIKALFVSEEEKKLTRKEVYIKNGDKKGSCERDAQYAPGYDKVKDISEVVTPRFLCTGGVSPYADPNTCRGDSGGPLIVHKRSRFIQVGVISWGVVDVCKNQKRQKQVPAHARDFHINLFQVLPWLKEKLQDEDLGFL

Structure (SMILES): CCO[C@H]1CCN(Cc2c(OC)cc(C)c3[nH]ccc23)[C@H](c2ccc(C(=O)O)cc2)C1 [Iptacopan, reference compound]
inhibition at 2 mg/kg ([1]; Rattus norvegicus, rats, 24 h post dose, 50% serum, read-out: Serum PD inhibition (%) at 24 h (2 mpk)): -3%

pKd [2]: 8.15
IC50 [3]: 7.5 nM
Residence time [4]: 236.4 s
t1/2 [4]: 0.0453 h
Structure (SMILES): COc1cc(C)c2[nH]ccc2c1CN1CC2CC3(CC3)CC2C1c1ccc(C(=O)O)cc1 (single isomer, unassigned) [29 (Isomer 1), 4-(2-((5-methoxy-7-methyl-1H-indol-4-yl)methyl)hexahydro-1H-spiro[cyclopenta[c]pyrrole-5,1′-cyclopropan]-1-yl)benzoic acid]

Structure (SMILES): COc1cc(C)c2[nH]ccc2c1CN1CCC2(CC1c1ccc(C(=O)O)cc1)CC2F (single isomer, unassigned) [27 (Isomer 2), 4-(1-fluoro-6-((5-methoxy-7-methyl-1H-indol-4-yl)methyl)-6-azaspiro[2.5]octan-5-yl)benzoic acid]
pKd [2]: 8.37
IC50 [3]: 5.3 nM
Residence time [4]: 308.9 s
t1/2 [4]: 0.0592 h

pIC50 [3]: > 8.70
t1/2 [4]: 1.214 h
Structure (SMILES): Cc1cc(C2CC2)c(CN2CCC3(C[C@H]2c2ccc(C(=O)O)cc2)CC(F)(F)C3)c2cc[nH]c12 [Example 53]

Structure (SMILES): COc1cc(C)c2[nH]ccc2c1CN1CCC2(C[C@H]1c1ccc(C(=O)O)cc1C)CC(F)(F)C2 [Example 57]
inhibition in mouse in-vivo PD assay (AP complement activation): sustained inhibition
pIC50 [3]: > 8.70
t1/2 [4]: 1.188 h
T½ [5]: 22.2 h
Plasma AUC0-last (nM · h) ([5]; plasma): 12,668 nM · h
Retina AUC0-last ([5]; retina): 0.7964 µM·h
inhibition in rat ex-vivo PD assay ([1]; at 24 h): sustained inhibition

Structure (SMILES): COc1cc(C)c2[nH]ccc2c1CN1CCC2(C[C@H]1c1ccc(-c3noc(=O)[nH]3)cc1)CC(F)(F)C2 (single isomer, unassigned) [47 (Isomer 1)]
pKd [2]: 9.28
IC50 [3]: < 2 nM
Residence time [4]: 4130 s
t1/2 [4]: 0.795 h

Structure (SMILES): COc1cc(C)c2[nH]ccc2c1CN1CCC2(CC1c1ccc(C(=O)O)cc1)CC2F (single isomer, unassigned) [27 (Isomer 1), 4-(1-fluoro-6-((5-methoxy-7-methyl-1H-indol-4-yl)methyl)-6-azaspiro[2.5]octan-5-yl)benzoic acid]
pKd [2]: 8.20
IC50 [3]: 5 nM
Residence time [4]: 191.4 s
t1/2 [4]: 0.0367 h

Structure (SMILES): COc1cc(C)c2[nH]ccc2c1CN1CCC2(CC1c1ccc(C(=O)O)cc1)CC2(F)F (single isomer, unassigned) [8 (Isomer 1), 4-(1,1-difluoro-6-((5-methoxy-7-methyl-1H-indol-4-yl)methyl)-6-azaspiro[2.5]octan-5-yl)benzoic acid]
IC50 [3]: 7 nM
AUC(0-t) ([5]; Brown Norway, rat, 2 mg/kg, plasma, read-out: Plasma AUC0-last): 10.8 µM·h
AUC(0-t) ([5]; Brown Norway, rat, 2 mg/kg, retina, read-out: Retina AUC0-last): 2.23 µM·h
half-life ([5]; Brown Norway, rat, in vivo, 2 mg/kg, read-out: T½ (converted)): 6.4 h

Structure (SMILES): Cc1cc(C)c2[nH]ccc2c1CN1CC2(CCCCC2)C1c1ccc(C(=O)O)cc1 (stereo not drawn) [Example 16, 4-(2-((5,7-dimethyl-1H-indol-4-yl)methyl)-2-azaspiro[3.5]nonan-1-yl)benzoic acid]
IC50 [3]: 305 nM

Structure (SMILES): COc1cc(C)c2[nH]ccc2c1CN1CC2CCCC2C1c1ccc(C(=O)O)cc1 (single isomer, unassigned) [13 (Isomer 1), 4-(2-((5-methoxy-7-methyl-1H-indol-4-yl)methyl)octahydrocyclopenta[c]pyrrol-1-yl)benzoic acid]
IC50 [3]: 17.4 nM

IC50 [3]: 16.6 nM
Structure (SMILES): COc1cc(C)c2[nH]ccc2c1CN1CCC2(CCOC2)CC1c1ccc(C(=O)O)cc1 (single isomer, unassigned) [36 (Isomer 2), 4-(8-((5-methoxy-7-methyl-1H-indol-4-yl)methyl)-2-oxa-8-azaspiro[4.5]decan-7-yl)benzoic acid]

IC50 [3]: 157 nM
Structure (SMILES): Cc1cc(C)c2[nH]ccc2c1CN1CCC(CF)CC1c1ccc(C(=O)O)cc1 (single isomer, unassigned) [7 (Isomer 2), 4-(1-((5,7-dimethyl-1H-indol-4-yl)methyl)-4-(fluoromethyl)piperidin-2-yl)benzoic acid]

IC50 [3]: 20.1 nM
Structure (SMILES): COc1cc(C)c2[nH]ccc2c1CN1CCC2(CCC(F)(F)C2)CC1c1ccc(C(=O)O)cc1 (stereo not drawn) [Example 41, 4-(2,2-difluoro-8-((5-methoxy-7-methyl-1H-indol-4-yl)methyl)-8-azaspiro[4.5]decan-7-yl)benzoic acid]

IC50 [3]: 313 nM
Structure (SMILES): Cc1cc(C)c2[nH]ccc2c1CN1CCC(CF)CC1c1ccc(C(=O)O)cc1 (single isomer, unassigned) [7 (Isomer 1), 4-(1-((5,7-dimethyl-1H-indol-4-yl)methyl)-4-(fluoromethyl)piperidin-2-yl)benzoic acid]

Structure (SMILES): Cc1cc(C)c2[nH]ccc2c1CN1C[C@@H]2CCCC2C1c1ccc(C(=O)O)cc1 (single isomer, unassigned) [9 (Isomer 2), 4-(2-((5,7-dimethyl-1H-indol-4-yl)methyl)octahydrocyclopenta[c]pyrrol-1-yl)benzoic acid]
IC50 [3]: 40.6 nM

pIC50 [3]: > 8.70
Structure (SMILES): Cc1cc(C(=O)O)ccc1[C@@H]1CC2(CCN1Cc1c(C3CC3)cc(C)c3[nH]ccc13)CC(F)(F)C2 [Example 83]

Structure (SMILES): COc1cc(C)c2[nH]ccc2c1CN1CC2CC(C(F)F)CC2C1c1ccc(C(=O)O)cc1 (single isomer, unassigned) [39 (Isomer 2), 4-(5-(difluoromethyl)-2-((5-methoxy-7-methyl-1H-indol-4-yl)methyl)octahydrocyclopenta[c]pyrrol-1-yl)benzoic acid]
IC50 [3]: 4.1 nM
